Our source for the relative viability values is the supplement of paper PMC10307832.

What all share (assay): relative viability (nuclei count vs DMSO), 5 days (fraction); higher = more cells survive
Compound in the test “4EGI-1 + Luminespib”: O=C(O)C(Cc1ccccc1[N+](=O)[O-])=NNc1nc(-c2ccc(Cl)c(Cl)c2)cs1 (mixture of isomers) [4EGI-1] + CCNC(=O)c1noc(-c2cc(C(C)C)c(O)cc2O)c1-c1ccc(CN2CCOCC2)cc1 [Luminespib] (partner 0.01 µM)
A digest of the protocol:
(§1)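 Cells from lung cancer lines were seeded into 1536-well plates and, one day later, dosed by pin tool. Treatments were either a single drug or a fixed dose of an anchor drug with five library-drug doses (not always all listed) in √10 steps. After 5 days, nuclei were stained in a one-step fixation (final 0.05% Triton X-100, 1% formaldehyde, 1 ug/ml Hoechst) and counted on 4× images, and relative viability is the treated-to-vehicle nuclei ratio, as the median of duplicate plates.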

Compound in the test “XMD8-85 + Lapatinib”: CN1CCN(CC1)C2=CC(=C(C=C2)NC3=NC=C4C(=N3)N(C5=CC=CC=C5C(=O)N4C)C)OC [XMD8-85] + CS(=O)(=O)CCNCc1ccc(-c2ccc3ncnc(Nc4ccc(OCc5cccc(F)c5)c(Cl)c4)c3c2)o1 [Lapatinib] (partner 2 µM)
A digest of the protocol: as §1

Compound in the test “4EGI-1 + AZD7762”: O=C(O)C(Cc1ccccc1[N+](=O)[O-])=NNc1nc(-c2ccc(Cl)c(Cl)c2)cs1 (mixture of isomers) [4EGI-1] + NC(=O)Nc1cc(-c2cccc(F)c2)sc1C(=O)N[C@H]1CCCNC1 [AZD7762] (partner 0.2 µM)
The method, boiled down: as §1

Compound in the test “XMD8-85 + Navitoclax”: CN1CCN(CC1)C2=CC(=C(C=C2)NC3=NC=C4C(=N3)N(C5=CC=CC=C5C(=O)N4C)C)OC [XMD8-85] + CC1(C)CCC(c2ccc(Cl)cc2)=C(CN2CCN(c3ccc(C(=O)NS(=O)(=O)c4ccc(N[C@H](CCN5CCOCC5)CSc5ccccc5)c(S(=O)(=O)C(F)(F)F)c4)cc3)CC2)C1 [Navitoclax] (partner 0.5 µM)
A digest of the protocol: as §1

For the cell line NCI-H1792, the relative viability with 4EGI-1 + Luminespib (first compound 0.5 µM) worked out at 0.917; with 4EGI-1 + Luminespib (first compound 1.581 µM) it was 0.414; with 4EGI-1 + Luminespib (first compound 5 µM), 0.411; with 4EGI-1 + Luminespib (first compound 15.81 µM), 0.37; in the test with 4EGI-1 + Luminespib (first compound 50 µM) it was 0.236; with XMD8-85 + Lapatinib (first compound 0.08 µM) it was 0.893. Further, the relative viability in the test with XMD8-85 + Lapatinib (first compound 0.253 µM) worked out at 0.63; with XMD8-85 + Lapatinib (first compound 2.53 µM) it was 0.675; in the test with XMD8-85 + Lapatinib (first compound 8 µM) it was 0.879; with 4EGI-1 + AZD7762 (first compound 0.5 µM), 0.67; with 4EGI-1 + AZD7762 (first compound 1.581 µM), 0.822; in the test with 4EGI-1 + AZD7762 (first compound 5 µM), 0.861. Besides, the relative viability with 4EGI-1 + AZD7762 (first compound 15.81 µM) came to 0.657; in the test with 4EGI-1 + AZD7762 (first compound 50 µM) it was 0.0923; with XMD8-85 + Navitoclax (first compound 0.08 µM) it was 0.488; with XMD8-85 + Navitoclax (first compound 0.253 µM), 0.398; with XMD8-85 + Navitoclax (first compound 2.53 µM), 0.482; in the test with XMD8-85 + Navitoclax (first compound 8 µM) it was 0.49.
